Laboratory results: patent publication US20090035306A1 (KALYPSYS, INC., priority 2006, published 2009)

Each compound was assayed against T1, human TGR5 (Homo sapiens, UniProt Q8TDU6) (assay: cAMP production assay in HEK293 cells stably expressing TGR5 (LANCE TR-FRET)). Settings: 30 minutes stimulation, read-out: cAMP Production in 293-TGR5 Cells EC50.
T1 construct: expressed in transfected cells
T1 sequence (Q8TDU6 1-330): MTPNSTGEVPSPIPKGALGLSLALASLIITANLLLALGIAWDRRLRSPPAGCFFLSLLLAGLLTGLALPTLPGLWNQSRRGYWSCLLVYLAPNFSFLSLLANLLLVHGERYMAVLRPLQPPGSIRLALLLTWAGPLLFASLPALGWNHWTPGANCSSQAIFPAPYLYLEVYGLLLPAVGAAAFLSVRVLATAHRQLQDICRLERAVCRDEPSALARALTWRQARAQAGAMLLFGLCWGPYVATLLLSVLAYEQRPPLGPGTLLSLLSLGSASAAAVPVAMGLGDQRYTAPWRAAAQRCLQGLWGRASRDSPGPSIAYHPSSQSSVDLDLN
Assay type: cell-based
Protocol: HEK293 cells stably expressing TGR5 (HEK293-TGR5) were established by stably transfecting HEK-293 cells with an expression vector (pcDNA 3.1, Invetrogen) inserted with human TGR5 cDNA using Fugene6 (Roche, Indianapolis, Ind.) according to conventional methods. Cells were grown in DMEM (invitrogen, Carlsbad, Calif.) supplemented with 10% FBS, 1% penicillin/streptomycin under geneticin selection. The presence of TGR5 transcripts in these cells was confirmed using branched DNA (bDNA, Genospectra, Inc., Fremont Calif.) following the manufacturer's protocol and using specific probes for human TGR5. cAMP production assay was performed in high throughput 1536 well format using LANCE cAMP detection kit (Perkin Elmer Inc., Boston, Mass.) according to the manufacturer's protocol. Briefly, HEK293-TGR5 cells were harvested using non-enzymatic cell dissociation buffer (Invitrogen, Carlsbad, Calif.) and suspended in DMEM supplemented with 0.1% FBS at a density of 800,000 cells/ml. Alexa antibody was added to the cell suspension, and 4 ul of the mixture was dispensed in white opaque tissue culture treated Greiner 1536 well plates (USA Scientific, Inc., Ocala, Fla.). After an overnight incubation at 37 C in an atmosphere of 10% CO2 and 95% humidity, 1 ul of 5 mM IBMX (Sigma, St. Louis, Mo.) solution in DMEM was dispensed for a final concentration of 1 mM. Cells were then stimulated with test compounds for 30 minutes, after which time 5 ul of detection reagent was added and incubated for 1-7 hrs at room temperature. TR-FRET signal was detected using the Viewlux (Perkin Elmer Inc., Boston Mass.). EC50 values were determined using Graph Pad Prizm analysis (GraphPad Software, Inc). The EC50 values for a wide range of bile acids generated from this assay were in agreement with the values published in the scientific literature. […] The symbol (+) denotes an EC50 value of ≦10 μM while the symbol (−) denotes an EC50 value of >10 μM (see Table 1).

| SMILES | EC50 |
| --- | --- |
| O=c1c2ccccc2nc(-c2cccc(Cl)c2)n1NCc1ccc(C(F)(F)F)cc1 [Example 49, 2-(3-chlorophenyl)-3-(4-(trifluoromethyl)benzylamino)quinazolin-4(3H)-one] | ≤ 10 µM |
| O=c1c2ccccc2nc(-c2cccc(OC(F)(F)F)c2)n1NCc1ccc(Br)cc1 [Example 60, 3-(4-bromobenzylamino)-2-(3-(trifluoromethoxy)phenyl)quinazolin-4(3H)-one] | ≤ 10 µM |
| O=c1c2ccc(C(F)(F)F)cc2nc(-c2ccccc2F)n1NCc1ccc(Cl)cc1 [Example 30, 3-(4-chlorobenzylamino)-2-(2-fluorophenyl)-7-(trifluoromethyl)quinazolin-4(3H)-one] | > 10 µM |
| O=c1c2ccccc2nc(-c2ccccc2F)n1NCc1ccc(C(F)(F)F)cc1 [Example 17, 2-(2-fluorophenyl)-3-(4-(trifluoromethyl)benzylamino)quinazolin-4(3H)-one] | ≤ 10 µM |
| O=c1c2cccc(O)c2nc(-c2ccc(F)cc2)n1NCc1ccc(Br)cc1 [Example 113, 3-(4-bromobenzylamino)-2-(4-fluorophenyl)-8-hydroxyquinazolin-4(3H)-one] | ≤ 10 µM |
| N#Cc1ccc(CNn2c(-c3ccc(F)cc3)nc3ccccc3c2=O)cc1 [Example 32, 4-((2-(4-fluorophenyl)-4-oxoquinazolin-3(4H)-ylamino)methyl)benzonitrile] | ≤ 10 µM |
| Cc1ccccc1-c1nc2ccccc2c(=O)n1NCc1ccc(Br)cc1 [Example 15, 3-(4-bromobenzylamino)-2-o-tolylquinazolin-4(3H)-one] | ≤ 10 µM |
| O=c1c2ccccc2nc(-c2ccc3c(c2)OCO3)n1NCc1ccc(Cl)cc1 [Example 64, 2-(benzo[d][1,3]dioxol-5-yl)-3-(4-chlorobenzylamino)quinazolin-4(3H)-one] | ≤ 10 µM |
| COc1cc(-c2nc3ccccc3c(=O)n2NCc2ccc(Cl)cc2)ccc1F [Example 73, 3-(4-chlorobenzylamino)-2-(4-fluoro-3-methoxyphenyl)quinazolin-4(3H)-one] | ≤ 10 µM |
| O=c1c2ccccc2nc(-c2cccs2)n1N(Cc1ccc(C(F)(F)F)cc1)Cc1ccc(C(F)(F)F)cc1 [Example 88, 3-(bis(4-(trifluoromethyl)benzyl)amino)-2-(thiophen-2-yl)quinazolin-4(3H)-one] | ≤ 10 µM |
| O=c1c2ccc(C(F)(F)F)cc2nc(-c2ccccc2F)n1NCc1ccc(F)cc1F [Example 29, 3-(2,4-difluorobenzylamino)-2-(2-fluorophenyl)-7-(trifluoromethyl)quinazolin-4(3H)-one] | > 10 µM |
| COc1ccc2c(=O)n(NCc3ccc(C(F)(F)F)cc3)c(-c3ccc(F)cc3)nc2c1 [Example 36, 2-(4-fluorophenyl)-7-methoxy-3-(4-(trifluoromethyl)benzylamino)quinazolin-4(3H)-one] | > 10 µM |
| COc1cc(OC)cc(-c2nc3ccccc3c(=O)n2NCc2ccc(Br)cc2)c1 [Example 58, 3-(4-bromobenzylamino)-2-(3,5-dimethoxyphenyl)quinazolin-4(3H)-one] | ≤ 10 µM |
| O=c1c2cc(O)ccc2nc(-c2ccc(F)cc2)n1NCc1ccc(Cl)cc1 [Example 98, 3-(4-chlorobenzylamino)-2-(4-fluorophenyl)-6-hydroxyquinazolin-4(3H)-one] | ≤ 10 µM |
| O=c1c2ccccc2nc(-c2ccc(F)cc2)n1NCc1cccnc1 [Example 37, 2-(4-fluorophenyl)-3-(pyridin-3-ylmethylamino)quinazolin-4(3H)-one] | > 10 µM |
| O=c1c2ccccc2nc(-c2ccc(C(F)(F)F)cc2)n1NCc1ccc(Br)cc1 [Example 9, 3-(4-bromobenzylamino)-2-(4-(trifluoromethyl)phenyl)quinazolin-4(3H)-one] | ≤ 10 µM |
| COc1cc(-c2nc3ccccc3c(=O)n2NCc2ccc(F)cc2)ccc1C [Example 67, 3-(4-fluorobenzylamino)-2-(3-methoxy-4-methylphenyl)quinazolin-4(3H)-one] | ≤ 10 µM |
| O=c1c2ccc(O)cc2nc(-c2ccc(F)cc2)n1NCc1ccc(Br)cc1 [Example 95, 3-(4-bromobenzylamino)-2-(4-fluorophenyl)-7-hydroxy quinazolin-4(3H)-one] | ≤ 10 µM |

Other lines, results leading:

| EC50 | SMILES |
| --- | --- |
| ≤ 10 µM | O=c1c2ccccc2nc(-c2ccccc2F)n1NCc1ccc(F)c(F)c1 [Example 14, 3-(3,4-difluorobenzylamino)-2-(2-fluorophenyl)quinazolin-4(3H)-one] |
| ≤ 10 µM | O=c1c2ccccc2nc(-c2ccc(F)cc2)n1NCc1ccc(C(F)(F)F)cc1 [Example 78, 2-(4-fluorophenyl)-3-(4-(trifluoromethyl)benzylamino)quinazolin-4(3H)-one] |
| ≤ 10 µM | O=c1c2ccccc2nc(-c2ccc(F)cc2)n1NCc1ccc(Cl)cc1 [Example 79, 3-(4-chlorobenzylamino)-2-(4-fluorophenyl)quinazolin-4(3H)-one] |
| ≤ 10 µM | COc1ccc(-c2nc3ccccc3c(=O)n2NCc2ccc(Cl)cc2)cc1O [Example 119, 3-(4-chlorobenzylamino)-2-(3-hydroxy-4-methoxyphenyl)quinazolin-4(3H)— one] |
| ≤ 10 µM | O=c1c2ccccc2nc(-c2ccc(Cl)cc2)n1NCc1ccc(C(F)(F)F)cc1 [Example 52, 2-(4-chlorophenyl)-3-(4-(trifluoromethyl)benzylamino)quinazolin-4(3H)-one] |
| ≤ 10 µM | O=c1c2ccccc2nc(-c2ccccc2F)n1NCc1cccc(Cl)c1 [Example 18, 3-(3-chlorobenzylamino)-2-(2-fluorophenyl)quinazolin-4(3H)-one] |
| ≤ 10 µM | Cc1ccc(CNn2c(-c3ccccc3F)nc3ccccc3c2=O)cc1 [Example 22, 2-(2-fluorophenyl)-3-(4-methylbenzylamino)quinazolin-4(3H)-one] |
| ≤ 10 µM | Cc1ccc(-c2nc3ccccc3c(=O)n2NCc2ccc(Br)cc2)cc1Cl [Example 109, 3-(4-bromobenzylamino)-2-(3-chloro-4-methylphenyl)quinazolin-4(3H)-one] |
| ≤ 10 µM | O=c1c2ccccc2nc(-c2ccco2)n1NCc1ccc(Br)cc1 [Example 40, 3-(4-bromobenzylamino)-2-(furan-2-yl)quinazolin-4(3H)-one] |
| ≤ 10 µM | O=c1c2cccc(O)c2nc(-c2ccc(F)cc2)n1NCc1ccc(Cl)cc1 [Example 114, 3-(4-chlorobenzylamino)-2-(4-fluorophenyl)-8-hydroxyquinazolin-4(3H)-one] |
| ≤ 10 µM | O=c1c2ccccc2nc(-c2ccccn2)n1NCc1ccc(Br)cc1 [Example 31, 3-(4-bromobenzylamino)-2-(pyridin-2-yl)quinazolin-4(3H)-one] |
| > 10 µM | COc1ccc2c(=O)n(NCc3ccc(Cl)cc3)c(-c3ccc(F)cc3)nc2c1 [Example 35, 3-(4-chlorobenzylamino)-2-(4-fluorophenyl)-7-methoxyquinazolin-4(3H)-one] |
| ≤ 10 µM | COc1cccc2c(=O)n(NCc3ccc(Br)cc3)c(-c3ccc(F)cc3)nc12 [Example 76, 3-(4-Bromo-benzylamino)-2-(4-fluoro-phenyl)-8-methoxy-3H-quinazolin-4-one] |
| ≤ 10 µM | O=c1c2ccccc2nc(-c2ccccc2C(F)(F)F)n1NCc1ccc(Br)cc1 [Example 8, 3-(4-bromobenzylamino)-2-(2(trifluoromethyl)phenyl)quinazolin-4(3H)-one] |
| ≤ 10 µM | O=c1c2ccccc2nc(-c2ccccc2)n1NCc1ccccc1 [Example 6, 3-(benzylamino)-2-phenylquinazolin-4(3H)-one] |
